# Legend:
# HeLa cells = assay: Cytotoxicity in HeLa cells, ATP content (ATPlite kit); format: cell-based; settings: HeLa cells, three days incubation, ATP content
# Protocol: (§1) Black 96-well clear-bottom microtiter plates (Corning, Amsterdam, The Netherlands) were filled in duplicate using a customized robot system with serial 4-fold dilutions of compound in a final volume of 50 μl culture medium [RPMI medium without phenol red, 10% FBS, 0.04% gentamycin (50 mg/mL) and 0.5% DMSO]. Then, 100 μl of a HeLa cell suspension (5×10^4 cells/mL) in culture medium was added to each well followed by the addition of 50 μl rgRSV224 (MOI=0.02) virus in culture medium using a multidrop dispenser (Thermo Scientific, Erembodegem, Belgium). rgRSV224 virus is an engineered virus that includes an additional GFP gene (Hallak et al, 2000) and was in-licensed from the NIH (Bethesda, Md., USA). Medium, virus- and mock-infected controls were included in each test. Cells were incubated at 37° C. in a 5% CO2 atmosphere. Three days post-virus exposure, viral replication was quantified by measuring GFP expression in the cells by a MSM laser microscope (Tibotec, Beerse, Belgium). The EC50 was defined as the 50% inhibitory concentration for GFP expression. In parallel, compounds were incubated for three days in a set of white 96-well microtitier plates (Corning) and the cytotoxicity of compounds in HeLa cells was determined by measuring the ATP content of the cells using the ATPlite kit (PerkinElmer, Zaventem, Belgium) according to the manufacturer's instructions. The CC50 was defined as the 50% concentration for cytotoxicity.
# rgRSV224 virus = assay: microbe, parasite or virus in culture; format: cell-based, respiratory syncytial virus (RSV); settings: human respiratory syncytial virus, HeLa, 72 h, read-out: RSV-wt_EC50
# Protocol: as §1
smiles,measurement,setting,value
"CC(C)CCn1c(Cn2c(=O)n(C(C)C)c3ccnc(Cl)c32)nc2cccnc21 [Compound 25, 4-chloro-3-((3-isopentyl-3H-imidazo[4,5-b]pyridin-2-yl)methyl)-1-isopropyl-1H-imidazo[4,5-c]pyridin-2(3H)-one]",TOX-HELA_EC50,HeLa cells,>24.5901 µM
same,EC50,rgRSV224 virus,8270 nM
CC(C)CCn1c(Cn2c(=O)n(C3CC3)c3ccncc32)nc2cnccc21 [Compound 33],TOX-HELA_EC50,HeLa cells,>98.3603 µM
same,EC50,rgRSV224 virus,30.4 nM
CN(C)c1nccc2c1nc(Cn1c(=O)n(C3CC3)c3ccncc31)n2CCCCO [Compound 37],TOX-HELA_EC50,HeLa cells,>9.836 µM
same,EC50,rgRSV224 virus,274 nM
"O=c1n(Cc2nc3nc(Cl)ccc3n2CCCCO)c2cnccc2n1C1CC1 [Compound 14, 3-((5-chloro-1-(4-hydroxybutyl)-1H-imidazo[4,5-b]pyridin-2-yl)methyl)-1-cyclopropyl-1H-imidazo[4,5-c]pyridin-2(3H)-one]",TOX-HELA_EC50,HeLa cells,>9.84 µM
same,EC50,rgRSV224 virus,6 nM
"CC(C)CCn1c(Cn2c(=O)n(C3CC3)c3ccccc32)nc2nc(Cl)ccc21 [Compound 13, 3-((5-chloro-1-isopentyl-1H-imidazo[4,5-b]pyridin-2-yl)methyl)-3-cyclopropyl-1H-benzo[d]imidazol-2(3H)-one]",TOX-HELA_EC50,HeLa cells,>9.84 µM
same,EC50,rgRSV224 virus,2.3 nM
"CC(C)CCn1c(Cn2c(=O)n(C3CC3)c3ccncc32)nc2nc(Cl)ccc21 [Compound 1, 3-((5-chloro-1-isopentyl-1H-imidazo[4,5-b]pyridin-2-yl)methyl)-1-cyclopropyl-1H-imidazo[4,5-c]pyridin-2(3H)-one]",TOX-HELA_EC50,HeLa cells,>9.836 µM
same,EC50,rgRSV224 virus,0.365 nM
"O=c1n(Cc2nc3cc(Br)cnc3n2CCCCO)c2cnccc2n1C1CC1 [Compound 19, 3-((6-bromo-3-(4-hydroxybutyl)-3H-imidazo[4,5-b]pyridin-2-yl)methyl)-1-cyclopropyl-1H-imidazo[4,5-c]pyridin-2(3H)-one]",TOX-HELA_EC50,HeLa cells,>98.3603 µM
same,EC50,rgRSV224 virus,19.1 nM
"O=c1n(Cc2nc3ncccc3n2CCCC(F)(F)F)c2cnccc2n1C1CC1 [Compound 41, 1-cyclopropyl-3-((1-(4,4,4-trifluorobutyl)-1H-imidazo[4,5-b]pyridin-2-yl)methyl)-1H-imidazo[4,5-c]pyridin-2(3H)-one]",TOX-HELA_EC50,HeLa cells,>98.3603 µM
same,EC50,rgRSV224 virus,7.1 nM
"CC(C)CCn1c(Cn2c(=O)n(C3CC3)c3ccncc32)nc2cc(CN)cnc21 [Compound 17, 3-((6-(aminomethyl)-3-isopentyl-3H-imidazo[4,5-b]pyridine-2-yl)methyl)-1-cyclopropyl-1H-imidazo[4,5-c]pyridin-2(3H)-one]",TOX-HELA_EC50,HeLa cells,>98.3603 µM
same,EC50,rgRSV224 virus,11.8 nM
"CC(C)CCn1c(Cn2c(=O)n(C3CC3)c3ccncc32)nc2cc(C#N)cnc21 [Compound 27, 2-((1-cyclopropyl-2-oxo-1H-imidazo[4,5-c]pyridin-3(2H)-yl)methyl)-3-isopentyl-3H-imidazo[4,5-b]pyridine-6-carbonitrile]",TOX-HELA_EC50,HeLa cells,>98.3603 µM
same,EC50,rgRSV224 virus,34100 nM
"O=c1n(Cc2nc3cc(Cl)cnc3n2CCCCO)c2cnccc2n1C1CC1 [Compound 21, 3-((6-chloro-3-(4-hydroxybutyl)-3H-imidazo[4,5-b]pyridin-2-yl)methyl)-1-cyclopropyl-1H-imidazo[4,5-c]pyridin-2(3H)-one]",TOX-HELA_EC50,HeLa cells,>9.836 µM
same,EC50,rgRSV224 virus,54.6 nM
"O=c1n(Cc2nc3nc(Cl)ccc3n2CCCCF)c2cnccc2n1C1CC1 [Compound 40, 3-((5-chloro-1-(4-fluorobutyl)-1H-imidazo[4,5-b]pyridin-2-yl)methyl)-1-cyclopropyl-1H-imidazo[4,5-c]pyridin-2(3H)-one]",TOX-HELA_EC50,HeLa cells,>98.3603 µM
same,EC50,rgRSV224 virus,2 nM
"O=c1n(Cc2nc3c(Cl)nccc3n2CCCCOCc2ccccc2)c2cnccc2n1C1CC1 [Compound 38, 3-((1-(4-benzyloxy)butyl)-4-chloro-1H-imidazo[4,5-c]pyridin-2-yl)methyl-1-cyclopropyl-1H-imidazo[4,5-c]pyridin-2(3H)-one]",TOX-HELA_EC50,HeLa cells,>98.3603 µM
same,EC50,rgRSV224 virus,1480 nM
"CC(C)CCn1c(Cn2c(=O)n(C3COC3)c3ccncc32)nc2cc(Br)cnc21 [Compound 18, 3-((6-bromo-3-isopentyl-3H-imidazo[4,5-b]pyridin-2-yl)methyl)-1-(oxetan-3-yl)-1H-imidazo[4,5-c]pyridin-2(3H)-one]",TOX-HELA_EC50,HeLa cells,>9.836 µM
same,EC50,rgRSV224 virus,17.3 nM
"CC(C)CCn1c(Cn2c(=O)n(C3COC3)c3ccncc32)nc2ncccc21 [Compound 9, 3-((1-isopentyl-1H-imidazo[4,5-b]pyridin-2-yl)methyl)-1-(oxetan-3-yl)-1H-imidazo[4,5-c]pyridin-2(3H)-one]",TOX-HELA_EC50,HeLa cells,>9.836 µM
same,EC50,rgRSV224 virus,58.1 nM
"CC(C)CCn1c(Cn2c(=O)n(C3CC3)c3ccncc32)nc2nc(C(F)(F)F)ccc21 [Compound 44, 1-cyclopropyl-3-((1-isopentyl-5-(trifluoromethyl)-1H-imidazo[4,5-b]pyridin-2-yl)methyl)-1H-imidazo[4,5-c]pyridin-2(3H)-one]",TOX-HELA_EC50,HeLa cells,>98.3603 µM
same,EC50,rgRSV224 virus,19 nM
"CC(C)CCn1c(Cn2c(=O)n(C3CC3)c3ccc(F)cc32)nc2ncccc21 [Compound 8, 1-cyclopropyl-5-fluoro-3-((1-isopentyl-1H-imidazo[4,5-b]pyridin-2-yl)methyl)-1H-benzo[d]imidazol-2(3H)-one]",TOX-HELA_EC50,HeLa cells,>9.836 µM
same,EC50,rgRSV224 virus,15.9 nM
"CC(C)CCn1c(Cn2c(=O)n(C3COC3)c3ccncc32)nc2nc(Cl)ccc21 [Compound 2, 3-((5-chloro-1-isopentyl-1H-imidazo[4,5-b]pyridin-2-yl)methyl)-1-(oxetan-3-yl)-1H-imidazo[4,5-c]pyridin-2(3H)-one]",TOX-HELA_EC50,HeLa cells,>9.836 µM
same,EC50,rgRSV224 virus,1.58 nM
O=c1n(Cc2nc3ncccc3n2CCCF)c2cnccc2n1C1CC1 [Compound 11],TOX-HELA_EC50,HeLa cells,>9.836 µM
same,EC50,rgRSV224 virus,90.9 nM
"CC(C)CCn1c(Cn2c(=O)n(C3CC3)c3ccncc32)nc2cc(C(=O)O)cnc21 [Compound 28, 2-((1-cyclopropyl-2-oxo-1H-imidazo[4,5-c]pyridin-3(2H)-yl)methyl)-3-isopentyl-3H-imidazo[4,5-b]pyridine-6-carboxylic acid]",TOX-HELA_EC50,HeLa cells,>49.1802 µM
same,EC50,rgRSV224 virus,> 49200 nM
"CC(C)(C)C(=O)OCCCCn1c(Cn2c(=O)n(C3CC3)c3ccncc32)nc2nc(Cl)ccc21 [Compound 3, 4-(5-chloro-2-((1-cyclopropyl-2-oxo-1H-imidazo[4,5-c]pyridin-3(2H)-yl)methyl)-1H-imidazo[4,5-b]pyridin-1yl)butyl pivalate]",TOX-HELA_EC50,HeLa cells,>9.836 µM
same,EC50,rgRSV224 virus,3.29 nM
"CC(C)CCn1c(Cn2c(=O)n(C3CC3)c3ccncc32)nc2cc(Br)cnc21 [Compound 16, 3-((6-bromo-3-isopentyl-3H-imidazo[4,5-b]pyridin-2-yl)methyl)-1-cyclopropyl-1H-imidazo[4,5-c]pyridin-2(3H)-one]",TOX-HELA_EC50,HeLa cells,>98.3603 µM
same,EC50,rgRSV224 virus,8.81 nM
"COCCCn1c(Cn2c(=O)n(C3COC3)c3ccncc32)nc2ncccc21 [Compound 12, 3-((1-(3-methoxypropyl)-1H-imidazo[4,5-b]pyridin-2-yl)methyl)-1-(oxetan-3-yl)-1H-imidazo[4,5-c]pyridin-2(3H)-one]",TOX-HELA_EC50,HeLa cells,>98.3603 µM
same,EC50,rgRSV224 virus,1940 nM
"CC(C)CCn1c(Cn2c(=O)n(C3CC3)c3ccccc32)nc2ncccc21 [Compound 4, 1-cyclopropyl-3-((1-isopentyl-1H-imidazo[4,5-b]pyridin-2-yl)methyl)-1H-benzo[d]imidazol-2(3H)-one]",TOX-HELA_EC50,HeLa cells,>9.836 µM
same,EC50,rgRSV224 virus,7.08 nM
"CC(C)CCn1c(Cn2c(=O)n(C3CC3)c3ccc(F)cc32)nc2nc(Cl)ccc21 [Compound 6, 3-((5-chloro-1-isopentyl-1H-imidazo[4,5-b]pyridin-2-yl)methyl)-1-cyclopropyl-5-fluoro-1H-benzo[d]imidazol-2(3H)-one]",TOX-HELA_EC50,HeLa cells,>9.836 µM
same,EC50,rgRSV224 virus,8.67 nM
"CC(C)CCn1c(Cn2c(=O)n(C3CC3)c3ccncc32)nc2ncccc21 [Compound 5, 1-cyclopropyl-3-((1-isopentyl-1H-imidazo[4,5-b]pyridin-2-yl)methyl)-1H-imidazo[4,5-c]pyridin-2(3H)-one]",TOX-HELA_EC50,HeLa cells,>98.3603 µM
same,EC50,rgRSV224 virus,8.67 nM
"O=c1n(Cc2nc3cc(Br)cnc3n2CCCCO)c2cnccc2n1C1COC1 [Compound 20, 3-((6-bromo-3-(4-hydroxybutyl)-3H-imidazo[4,5-b]pyridin-2-yl)methyl)-1-(oxetan-3-yl)-1H-imidazo[4,5-c]pyridin-2(3H)-one]",TOX-HELA_EC50,HeLa cells,>9.836 µM
same,EC50,rgRSV224 virus,36.1 nM
CC(C)CCn1c(Cn2c(=O)n(C3COC3)c3ccncc32)nc2cnccc21 [Compound 36],TOX-HELA_EC50,HeLa cells,>9.836 µM
same,EC50,rgRSV224 virus,94.9 nM
"O=c1n(Cc2nc3ncccc3n2CCCCF)c2cnccc2n1C1CC1 [Compound 42, 1-cyclopropyl-3-((1-(4-fluorobutyl)-1H-imidazo[4,5-b]pyridin-2-yl)methyl)-1H-imidazo[4,5-c]pyridin-2(3H)-one]",TOX-HELA_EC50,HeLa cells,>98.3603 µM
same,EC50,rgRSV224 virus,5.2 nM

# Source: patent US9321767B2, “Azabenzimidazoles as respiratory syncytial virus antiviral agents” (JANSSEN SCIENCES IRELAND UC, priority 2010, dated 2016)
